Non-standard residues stand in square brackets, D forms with d. Residues, ends and D or L forms follow the SMILES beside them.
Assays:
blood glucose = test: potentiation of the hypoglycemic effect of insulin in adrenalectomized rats; format: in vivo, rat
gastric acid = test: reduction of gastric acid after intravenous administration to the rat; format: in vivo; conditions: i.v. dose of 30 μg/kg
Description: The peptides according to the invention have the inhibitory properties of somatostatin, but their duration of action is considerably longer at lower doses. For example, after intravenous administration to the rat, these peptides reduce gastric acid with an ED50 of about 5 μg/kg. The reduction in gastric acid is maintained for 2 hours. […] A reduction in gastric acid is only brought about by infusing somatostatin. […] The new compounds can also be administered orally and intranasally. However, in these instances considerably higher doses are necessary because of the poorer absorption.

C[C@@H](O)[C@@H]1NC(=O)[C@H](CCCCN)NC(=O)[C@@H](Cc2c[nH]c3ccccc23)NC(=O)[C@H](Cc2ccccc2)NC(=O)[C@@H]2CCCN2C(=O)[C@H](Cc2ccccc2)NC1=O [cyclo-(Pro-Phe-D-Trp-Lys-Thr-Phe)] (cyclo(PF[dW]KTF))
effect on blood glucose (blood glucose; dose of as much as 0.318 μg/kg^-1. min^-1): completely ineffective

C[C@H](N)C(=O)NCC(=O)N[C@H]1CSSC[C@@H](C(=O)O)NC(=O)[C@H](CO)NC(=O)[C@H]([C@@H](C)O)NC(=O)[C@H](Cc2ccccc2)NC(=O)[C@H]([C@@H](C)O)NC(=O)[C@H](CCCCN)NC(=O)[C@H](Cc2c[nH]c3ccccc23)NC(=O)[C@H](Cc2ccccc2)NC(=O)[C@H](Cc2ccccc2)NC(=O)[C@H](CC(N)=O)NC(=O)[C@H](CCCCN)NC1=O [somatostatin, Somatostatin]
effect on gastric acid (gastric acid): no effect whatever

cyclo-(Aoc-Phe-D-Trp-Lys-Val-Phe)
potentiation of the hypoglycemic effect of insulin, effect relative to cyclo-(Pro-Phe-D-Trp-Lys-Thr-Phe) (blood glucose): at least twice
reduction of blood glucose (blood glucose; dose of 0.07 μg/kg^-1.min^-1): up to 24%
